# Laboratory results from patent US20200011852A1, “METHODS FOR PREDICTING THE ANTICANCER THERAPEUTIC RESPONSE OF L-ASCORBIC ACID” (priority 2018, published 2020).
# Tests used:
# Format in all cases: cell-based, human
# [1] = test system: SVCT-2 high-expression cells; assay: c-Myc localization by immunocytochemistry, SVCT-2 high-expression cell lines; settings: phloretin treated together with vitamin C
# Protocol: (§1) Cells treated with vitamin C were immobilized with 4% paraformaldehyde for 10 minutes and were washed with PBS 3 times for 5 minutes, and then permeable buffer (Biolegend, San Diego, Calif., USA) was treated for 10 minutes. Then, cells were washed with PBS 3 times and were cultured with anti-c-Myc (1:500; NB200-108, Novus biologics) antibody at 4° C. overnight. Then, after washing with PBS 4 times, cells were cultured with a secondary anti-mouse-TRITC (1:1000; ab6786; Abcam) conjugated antibody.
# In order to confirm the cell proliferation by the hormetic response in cancer cell lines, the cell proliferation confirmation experiment through c-Myc was conducted.
# Specifically, after smearing cells on cover glass and culturing them, vitamin C was treated and after washing with PBS, an antigen with […] as antigens was attached to cells, and it was confirmed through fluorescence.
# [2] = test system: SVCT-2 high-expression cell lines, Sw480 and Sw620; assay: Western blot of Bax, c-Myc and Cyclin D1, SVCT-2 high-expression cell lines
# Protocol: (§2) Protein was extracted from frozen tissue using PRO-PREP protein extraction kit according to the instruction of the manufacturer. The protein concentration was measured using Bradford assay (Bio-RAD, Munich, Germany)
# (§3) After denaturalizing protein 30 μg in sample buffer at 95° C. for 6 minutes, samples were loaded on 12% SDS-polyacrylamide gel and were transferred to a nitrocellulose blotting membrane. Subsequently, the membrane was blocked with 5% skim milk in Tris-buffered saline. Then, after washing it with Tris-buffered saline-0.10% Tween 20 three times, the membrane was cultured at 4° C. overnight with anti-cyclin D1 (1:2500; NB600-584; Novus biologics), anti-c-Myc (1:2500; NB200-108; Novus biologics), anti-Bax (1:2000; 2774; Cell Signaling Technology, Beverly, Mass., USA), and anti-beta-actin (1:5000; ab20272; Abcam, Cambridge, Mass., USA) antibodies. Then, after washing it with Tris-buffered saline-0.10% Tween 20 4 times for 20 minutes, the membrane was cultured with a secondary anti-rabbit, anti-rat or anti-goat antibody for 1 hour. After additional washing, immunoreactive bands exposed to ECL substrate (Pierce, Rockford, Ill., USA) and X-ray film (Agfa-Gevaert N.V, Septestraat, Mortsel, Belgium) were detected.
# After treating vitamin C 10 μM and phloretin to SVCT-2 high-expression cell lines, Sw480 and Sw620 at the same time, the western blot analysis of Bax, c-Myc and Cyclin D1 in cells was conducted, and the result was shown in FIG. 6c and FIG. 6d.
# [3] = test system: SVCT-2 high-expression cell lines, Sw620 and Sw480; assay: qRT-PCR gene expression analysis, SVCT-2 high-expression cell lines
# Protocol: (§4) According to the method provided by the manufacturer, the total RNA of cells was extracted using TRI reagent (MRC; Molecular Research Center, Cincinnati, Ohio, USA). The RNA concentration was determined using a spectrophotometer reading the absorbance at 260 nm. cDNA was synthesized using mML-V reverse transcriptase (Bioneer Co, Daejeon, Republic of Korea) according to the protocol provided by the manufacturer. Then, using SYBR Premix Ex Taq (TaKaRa, Otsu, Shinga, Japan) and Rotor-Gene Q system (Qiagen, Chadstone, Victoria, Australia), quantitative real-time PCR was carried out. Data were analyzed using Rotor-Gene Q series software version 2.3.1 (Qiagen).
# (§5) In order to confirm the apoptosis and hormetic proliferation response by vitamin C, the quantitative real-time polymerase chain reaction (qRT-PCR) gene-expression analysis of p53, Cyclin D1, E2F1 and Ki-67 genes was conducted using the method of Experimental example 3, and the result was shown in FIG. 2c to FIG. 2f.
# After treating vitamin C 10 μM and phloretin to SVCT-2 high-expression cell lines, Sw480 and Sw620 at the same time, the relative expression of Ki-67 and E2F1 used as cancer cell proliferation markers was measured using the qRT-PCR of Example 1, and the result was shown in FIG. 5e and FIG. 5f.
# [4] = test system: SVCT-2 high-expression cell lines, Sw480 and Sw620; assay: Vitamin C absorption in Sw480 and Sw620 with the SVCT family inhibitor phloretin; settings: phloretin 20 μM together with vitamin C 1 mM
# Protocol: In order to measure the vitamin C absorption of each colorectal cancer cell line, the absorption of vitamin C in cells was analyzed with High Performance Liquid Chromatography (HPLC), and the result was shown in FIG. 1c.
# Then, after treating 1 mM vitamin C, or treating vitamin C 1 mM and phloretin 20 μM together to each cell line of the SVCT-2 high-expression cell lines, Sw480 and Sw620, the vitamin C absorption was measured, and the result was shown in FIG. 9a.
# The experimental results measured according to the method for measuring the vitamin C absorption of SVCT-2 expression cell lines of Example 1-3, after treating various concentrations (0 mM or 1 mM) of vitamin C and treating 1 mM vitamin C and 20 μM phloretin, for SVCT-2 high-expression cell lines, Sw480 and Sw620 were shown in FIG. 9a.
# [5] = test system: SVCT-2 high-expression cell lines, Sw480 and Sw620; assay: Cell viability of Sw480 and Sw620 treated with vitamin C and/or phloretin; settings: for cell response (cell viability): Sw620 and Sw480
# Protocol: (§6) The cell viability was measured by Neutral red (sigma) assay. Cells (1×10^4/each well) were inoculated on a 96-well plate and were cultured for 24 hours and were treated with vitamin C for 4 hours, and then were washed with PBS (Pan Biotech), and were further cultured in RPMI1640 without vitamin C for 20 hours. They were washed twice and were stained.
# [6] = test system: Sw620 and Sw480 cell lines; assay: ROS production by DCF-Da staining (FACS), SVCT-2 high-expression cell lines
# Source text: In order to confirm ROS production in SVCT-2 high-expression cell lines in the apoptosis response and hormetic response, and more specifically confirm the cause of the result of Example 5, the present inventors investigated ROS production using DCF-Da staining in Sw620 cell line and Sw480 cell line, and the result was shown in FIG. 5c and FIG. 5d.
# [7] = test system: SVCT-2 low-expression cell lines (HCT116, CoLo-205, HCT15, DLD-1); assay: Cell viability (Neutral red), vitamin C concentration gradient, SVCT-2 low-expression cell lines
# Protocol: as §6
# (§7) In order to research a role conducted by vitamin C treated at a high concentration or low concentration to cancer cell lines, after treating vitamin C at various concentrations according to a concentration gradient to each cell line, the cell viability analysis was conducted using the method of Experimental example 2.
# After treating vitamin C to SVCT-2 low-expression cell liens (HCT116, CoLo-205, HCT15, DLD-1) according to a concentration gradient (0 μm to 2 mM), the cell viability was measured, and the result was shown in FIG. 2a.
# [8] = test system: SVCT-2 low-expression cell lines, DLD-1 and HCT15; assay: qRT-PCR gene expression analysis, SVCT-2 low-expression cell lines
# Protocol: as §4, §5
# [9] = test system: colorectal cancer cell lines (Sw480, Sw620, LoVo, SNU-C4, HCT116, SNU-05, CoLo-205, HCT15, DLD-1); assay: Cell viability (Neutral red) of colorectal cancer cell lines treated with 1 mM vitamin C; settings: nine colorectal cancer cell lines
# Protocol: Human colorectal cancer cells were cultured in RPMI1640 medium Gilbco, Cergy Pontoise, France) containing 10% bovine fetal serum (PAN Biotech, Aidenbach, Germany) and 1% Penstrep (PAN Biotech) in a humidified incubator comprising 5% CO2 under the condition of 37° C. Vitamin C was purchased from BCWORLD PHARM (BCWORLD PHARM. CO, Seoul, Korea), and phloretin was purchased from sigma Aldrich (Sigma, St. Louis, Mo., USA).
# The human colorectal cancer cell lines used in the experiment were Sw480, Sw620, HCT116, HCT15, SNU-C4, SNU-05, DLD-1, LoVo, and CoLo-205 cell lines commonly used in the related art. All the colorectal cancer cell lines used in the experiment of the present invention were received from Dr. Yu Byung-Chul of National Cancer Center.
# as §6
# The cell viability of each colorectal cancer cell line was measured using the method of Experimental example 2, and the result was shown in FIG. 1b.
# [10] = test system: SVCT-2 low-expression cell lines (DLD1 and HCT15); assay: ROS production by DCF-Da staining (FACS), SVCT-2 low-expression cell lines; settings: 15 minutes, DLD-1 and HCT15
# Protocol: In order to investigate ROS production, when treating vitamin C of 10 μM or 1 mM to SVCT-2 low-expression cell lines (DLD1 and HCT15), after treating each dose of vitamin C to SVCT-2 low-expression cell lines, they were stained with DCF-Da, and the ROS measurement result was shown in FIG. 3a and FIG. 3b.
# [11] = test system: HCT15 and DLD-1; assay: Western blot of Bax, c-Myc and Cyclin D1, SVCT-2 low-expression cell lines
# Protocol: as §2, §3
# In order to investigate the apoptosis and proliferation of cancer cells by vitamin C treatment in the protein expression level, a low concentration or high concentration of vitamin C was treated to SVCT-2 low-expression cell lines and the western blot analysis of Bax, c-Myc, and Cyclin D1 was conducted using the method of Experimental example 4, and the result was shown in FIG. 4c and FIG. 4d.
# [12] = test system: HCT15 and DLD-1 cell lines; assay: c-Myc localization by immunocytochemistry, SVCT-2 low-expression cell lines; settings: vitamin C 1 mM or 10 μM
# Protocol: as §1
# In order to investigate the expression of cancer proliferation markers in SVCT-2 low-expression cell lines and localization where c-Myc is present in cancer cell lines, after treating vitamin C of 1 mM or 10 μM to each SVCT-2 low-expression cell line, HCT15 and DLD-1 cell lines, the immunocytochemistry of Experimental example 5 was conducted, and the result was shown in FIGS. 4a and 4b.
# [13] = test system: SVCT high-expression cell lines (Sw480, Sw620, LoVo, SNU-C4); assay: Cell viability (Neutral red), vitamin C concentration gradient, SVCT-2 high-expression cell lines
# Protocol: as §6, §7
# As same as the SVCT low-expression cell lines, after treating vitamin C to SVCT high-expression cell lines (Sw480, Sw620, LoVo, SNU-C4) according to a concentration gradient (0 μm to 2 mM), the cell viability was measured, and the result was shown in FIG. 2b. It was confirmed that in case of high-expression cell lines, when treating a low concentration of vitamin C, the cell viability was reduced, and as the treated concentration of vitamin C increased, the cell viability was reduced more.
# [14] = 10 μM vitamin C and phloretin at the same time
# [15] = vitamin C 10 μM and phloretin at the same time, Sw620 and Sw480
# [16] = low concentration (10 μM) vitamin C, DLD-1 and HCT15
# [17] = 10 μM or 1 mM vitamin C without phloretin
# [18] = vitamin C 10 μM or 1 mM, Sw620 and Sw480
smiles,measurement,setting,value
O=C(CCc1ccc(O)cc1)c1c(O)cc(O)cc1O [phloretin],localization of increased c-Myc (immunocytochemistry),[1],present in cytoplasm not a nucleus
same,expression of C-Myc (western blot),[2]; [14],increased
same,expression of cyclin D1 (western blot),[2]; [14],increased
same,Bax expression (western blot),[2]; phloretin treatment (with 10 μM vitamin C),did not change remarkably
same,expression of E2F1 (qRT-PCR),[3]; [15],increased
same,expression of Ki-67 (qRT-PCR),[3]; [15],increased
same,intracellular capacity of vitamin C (vitamin C absorption),[4],reduced
same,cytotoxicity of phloretin (cell viability assay),"[5]; concentration of phloretin used in the experiment (20 μM; 0-40 μM tested), Sw480 and Sw620",no cell self-toxicity
same,cell response (cell viability),[5]; phloretin together with vitamin C 10 μM,hormetic proliferation response occurred
same,ROS production (DCF-Da),[6]; 20 μM phloretin with 10 μM vitamin C,not sufficiently produced
"O=C1O[C@H]([C@@H](O)CO)C(O)=C1O [vitamin C, L-ASCORBIC ACID]",cell viability,[7]; vitamin C 1.0 mM to 2.0 mM or more,dramatically reduced
same,cell viability,[7]; vitamin C less than 10 μM,over 100%
same,expression of p53 (qRT-PCR),"[8]; 10 μM and 1 mM tested, SVCT-2 low-expression cell lines",induced only in case of treatment of 1 mM vitamin C
same,expression of E2F1 (qRT-PCR),[8]; [16],increased
same,expression of Ki-67 (qRT-PCR),[8]; [16],increased
same,expression of cyclin D1 (qRT-PCR),[8]; [16],increased
same,expression of C-Myc (western blot),[2]; [17],significantly reduced
same,expression of cyclin D1 (western blot),[2]; [17],significantly reduced
same,Bax expression (western blot),[2]; vitamin C treatment (10 μM or 1 mM),increased
same,cytotoxicity of vitamin C (cell viability),[9],proportional to SVCT-2 expression
same,expression of p53 (qRT-PCR),"[3]; 10 μM and 1 mM, SVCT-2 high-expression cell lines",increased
same,expression of E2F1 (qRT-PCR),[3]; [18],reduced
same,expression of Ki-67 (qRT-PCR),[3]; [18],reduced
same,expression of cyclin D1 (qRT-PCR),[3]; [18],reduced
same,ROS production (DCF-Da),[10]; 10 μM vitamin C,not produced
same,ROS production (DCF-Da),[10]; 1 mM vitamin C,produced
same,cell response (cell viability),"[5]; vitamin C 1 mM and 10 μM, without phloretin",apoptosis response was induced
same,expression of c-Myc (western blot),[11]; 10 μM vitamin C,increased
same,expression of cyclin D1 (western blot),[11]; 10 μM vitamin C,increased
same,expression of c-Myc (western blot),[11]; 1 mM vitamin C,reduced
same,expression of cyclin D1 (western blot),[11]; 1 mM vitamin C,reduced
same,Bax expression (western blot),[11]; vitamin C 1 mM and 10 μM,did not significantly change
same,c-Myc localization (immunocytochemistry),[12],almost localized in cytoplasm
same,cell viability,[13]; as the treated concentration of vitamin C increased (up to 2 mM),reduced more
same,cell viability,[13]; low concentration of vitamin C,reduced
same,ROS production (DCF-Da),[6]; 1 mM vitamin C or 10 μM vitamin C,produced
